Data taken from patent US6617350B2, “Inhibitors of aspartyl protease” (priority 1999, dated 2003).
Where two headings read alike, the source gives them in different places.

Columns and labels:
HIV-1 protease = HIV-1 protease (Human immunodeficiency virus type 1 group M subtype B, UniProt P04585); experiment: biochemical; conditions: Table 12; HIV-1 protease; read-out: Ki
HIV-1 (strain IIIB) = experiment: microbe, parasite or virus in culture; assay type: cell-based; conditions: read-out: IC50
[1] = Human immunodeficiency virus 1, IIIB, MT4, Table 12, anti-viral potency in MT-4 cells
[2] = Table 12, anti-viral potency in MT-4 cells

SMILES | Ki (HIV-1 protease) [µM] | IC50 (HIV-1 (strain IIIB); [1]) [µM] | IC50 (HIV-1 (strain IIIB); Human immunodeficiency virus 1, IIIB, MT4, Table 13, MT-4 cell based assay, class symbol) [µM] | IC50 (HIV-1 (strain IIIB); [2]) [µM] | IC50 (HIV-1 (strain IIIB)) [µM]
CCC(CCC#N)CN(CC(O)C(Cc1ccccc1)NC(=O)OC1CCOC1)S(=O)(=O)c1ccc(OC)cc1 [Compound 9, (3S)-Tetrahydro-3-furanyl N-((1S,2R)-1-benzyl-3-[(2RS)-4-cyano-2-ethyl][(4-methoxyphenyl)sulfonyl]amino-2-hydroxypropyl)carbamate] | < 0.001 | > 1 |  |  | 
CC(C)(CCC#N)CN(CC(O)[C@H](Cc1ccccc1)NC(=O)OC1COC2OCCC12)S(=O)(=O)c1cccc(N)c1 (stereo partly drawn) [Compound 10, (3S,3aR,6aS)-Hexahydrofuro[2,3-b]furan-3-yl N-((1S,2R)-3-[(3-aminophenyl)sulfonyl](4-cyano-2,2-dimethylbutyl)-amino-1-benzyl-2-hydroxypropyl)carbamate] | < 0.001 | ≤ 0.1 |  |  | 
COc1ccc(S(=O)(=O)N(CC(O)C(Cc2ccccc2)NC(=O)OC2COC3OCCC23)CC(C)(C)CCC#N)cc1 [Compound 11, (3S,3aR,6aS)-Hexahydrofuro[2,3-b]furan-3-yl N-((1S,2R)-1-benzyl-3-(4-cyano-2,2-dimethylbutyl)[(4-methoxyphenyl)sulfonyl]amino-2-hydroxypropyl)carbamate] | < 0.001 | ≤ 0.1 |  |  | 
CNc1cccc(S(=O)(=O)N(C[C@@H](O)[C@H](Cc2ccccc2)NC(=O)O[C@H]2CO[C@H]3OCC[C@H]32)CC(C)(C)CCC#N)c1 [Compound 12, (3R,3aS,6aR)-Hexahydrofuro[2,3-b]furan-3-yl N-[(1S,2R)-1-benzyl-3-((4-cyano-2,2-dimethylbutyl)[3-(methylamino)-phenyl]sulfonylamino)-2-hydroxypropyl]carbamate] | < 0.001 | ≤ 0.1 | 0.001 to 0.01 |  | 
CC(C)(CCC#N)CN(CC(O)[C@H](Cc1ccccc1)NC(=O)OC1COC2OCCC12)S(=O)(=O)c1cccc(N)c1 (stereo partly drawn) [Compound 16, (3R,3aS,6aR)-Hexahydrofuro[2,3-b]furan-3-yl N-((1S,2R)-3-[(3-aminophenyl)sulfonyl](4-cyano-2,2-dimethylbutyl)amino-1-benzyl-2-hydroxypropyl)carbamate] | < 0.001 |  |  | ≤ 0.1 | 
CCC(CC)(CCC#N)CN(C[C@@H](O)[C@H](Cc1ccccc1)NC(=O)O[C@H]1CCOC1)S(=O)(=O)c1ccc(OC)cc1 [Compound 17, (3S)-Tetrahydro-3-furanyl N-((1S,2R)-1-benzyl-3-(4-cyano-2,2-diethylbutyl)[(4-methoxyphenyl)sulfonyl]amino-2-hydroxypropyl)carbamate] | < 0.001 |  |  |  | 0.1 to 0.5
COc1ccc(S(=O)(=O)N(C[C@@H](O)[C@H](Cc2ccccc2)NC(=O)O[C@H]2CCOC2)CC(C)(C)CCCC#N)cc1 [Compound 18, (3S)-Tetrahydro-3-furanyl N-((1S,2R)-1-benzyl-3-(5-cyano-2,2-dimethylpentyl)[(4-methoxyphenyl)sulfonyl]amino-2-hydroxypropyl)carbamate] | < 0.001 | 0.1 to 0.5 |  |  | 
COc1ccc(S(=O)(=O)N(C[C@@H](O)[C@H](Cc2ccccc2)NC(=O)OC2COCOC2)CC(C)(C)CCC#N)cc1 [Compound 19, {(1S,2R)-1-Benzyl-3-[(4-cyano-2,2-dimethyl-butyl)-(4-methoxy-benzenesulfonyl)-amino]-2-hydroxy-propyl}-carbamic acid[1,3]dioxan-5-yl ester] | < 0.001 | 0.1 to 0.5 |  |  | 
COc1ccc(S(=O)(=O)N(C[C@@H](O)[C@H](Cc2ccccc2)NC(=O)C(C)CS(C)(=O)=O)CC(C)(C)CCC#N)cc1 (stereo partly drawn) [Compound 22, 1N-(3-Methylsulfonylisobutyryl)-(1S,2R)-1-benzyl-3-(4-cyano-2,2-dimethylbutyl)[4-methoxyphenylsulfonyl]amino-2-hydroxypropyl amine] | < 0.001 |  |  | 0.1 to 0.5 | 
CC(C)(CCC#N)CN(C[C@@H](O)[C@H](Cc1ccccc1)NC(=O)O[C@H]1CO[C@H]2OCC[C@H]21)S(=O)(=O)c1ccc2c(c1)OCO2 [Compound 25, {(1S,2R)-3-[(Benzo[1,3]dioxole-5-sulfonyl)-(4-cyano-2,2-dimethyl-butyl)-amino]-1-benzyl-2-hydroxy-propyl}-carbamic acid (3R, 3aS, 6aR)hexahydro-furo[2,3-b]furan-3-yl ester] | < 0.001 | ≤ 0.1 |  |  | 
COc1ccc(S(=O)(=O)N(CCCCC#N)C[C@@H](O)[C@H](Cc2ccccc2)NC(=O)O[C@H]2CCOC2)cc1 [Compound 26, (3S)-Tetrahydro-3-furanyl N-((1S,2R)-1-benzyl-3-(4-cyanobutyl)[(4-methoxyphenyl)sulfonyl]amino-2-hydroxypropyl)carbamate] | < 0.001 | 0.1 to 0.5 |  |  | 
CC(C)(CCC#N)CN(C[C@@H](O)[C@H](Cc1ccccc1)NC(=O)OC1COCOC1)C(=O)OCc1ccccc1 [Compound 28, (4-Cyano-2,2-dimethyl-butyl)-[(2R,3S)-3-([1,3]dioxan-5-yloxycarbonylamino)-2-hydroxy-4-phenyl-butyl]-carbamic acid benzyl ester] | < 0.001 | 0.1 to 0.5 |  |  | 
CC(=O)Nc1ccc(S(=O)(=O)N(C[C@@H](O)[C@H](Cc2ccccc2)NC(=O)O[C@H]2CO[C@H]3OCC[C@H]32)CC(C)(C)CCC#N)cc1 [Compound 29, {(1S,2R)-3-[(4-Acetylamino-benzenesulfonyl)-(4-cyano-2,2-dimethyl-butyl)-amino]-1-benzyl-2-hydroxy-propyl}-carbamic acid (3R,3aS,6aR)hexahydro-furo[2,3-b]furan-3-yl ester] | < 0.001 | 0.1 to 0.5 |  |  | 
CC(=O)Nc1cc(S(=O)(=O)N(C[C@@H](O)[C@H](Cc2ccccc2)NC(=O)O[C@H]2CO[C@H]3OCC[C@H]32)CC(C)(C)CCC#N)ccc1F [Compound 30, {(1S,2R)-3-[(3-Acetylamino-4-fluoro-benzenesulfonyl)-(4-cyano-2,2-dimethyl-butyl)-amino]-1-benzyl-2-hydroxy-propyl}-carbamic acid (3R,3aS,6aR)hexahydro-furo[2,3-b]furan-3-yl ester] | < 0.001 | ≤ 0.1 |  |  | 
CC(=O)Nc1cccc(S(=O)(=O)N(C[C@@H](O)[C@H](Cc2ccccc2)NC(=O)O[C@H]2CO[C@H]3OCC[C@H]32)CC(C)(C)CCC#N)c1 [Compound 31, {(1S,2R)-3-[(3-Acetylamino-benzenesulfonyl)-(4-cyano-2,2-dimethyl-butyl)-amino]-1-benzyl-2-hydroxy-propyl}-carbamic acid (3R,3aS,6aR)hexahydro-furo[2,3-b]furan-3-yl ester] | < 0.001 | ≤ 0.1 |  |  | 
CC(C)(CCC#N)CN(CC(O)C(Cc1ccccc1)NC(=O)OC1COC2OCCC12)S(=O)(=O)c1ccc(OCc2ccccc2)cc1 [Compound 32, {(1S,2R)-3-[(4-benzyloxybenzenesulfonyl)-(4-cyano-2,2-dimethyl-butyl)-amino]-1-benzyl-2-hydroxy-propyl}-carbamic acid (2R,3aS,6aR)hexahydro-furo[2,3-b]furan-3-yl ester] | < 0.001 | 0.1 to 0.5 |  |  | 
CC(C)(CCC#N)CN(C[C@@H](O)[C@H](Cc1ccccc1)NC(=O)OC1COCOC1)S(=O)(=O)c1ccc(OCc2ccccc2)cc1 [Compound 33, {(1S,2R)-1-Benzyl-3-[(4-cyano-2,2-dimethyl-butyl)-(4-benzyloxybenzenesulfonyl)-amino]-2-hydroxy-propyl}-carbamic acid[1,3]dioxan-5-yl ester] | 0.01 to 0.1 | 0.5 to 1 |  |  | 
